From publication PMC10987521, “An all-in-one tetrazine reagent for cysteine-selective labeling and bioorthogonal activable prodrug construction” (Nature Communications, 2024) come the findings set out here.

The IC50 is the midpoint of a concentration-inhibition curve.

Series [1] in a line: Labeling reaction kinetics between tetrazine 1 and Cys. The format is physicochemical. The following applies: 25 °C, PB (30% MeCN, 20 mM, pH 8.0), equal concentrations, UV-Vis 300 nm. As to the method:
The second-order rate constant for the labeling reactions between tetrazine 1 and Cys was determined at 25 °C in PB (30% MeCN, 20 mM, pH 8.0) under second-order conditions using a 6000+ (Quawell) UV-Vis spectrophotometer. The concentrations of cysteine and tetrazine were identical. The specific difference in absorption wavelength (300 nm) between 1 and Cys-1 was measured over time. The second-order rate constant k2 was calculated from the slope of a plot of (1/c – 1/c0) versus time.
5. Competitive labeling reaction with other nucleophilic amino acids
For the competitive labeling experiment, 10 equiv. (2 mM) of N-Fmoc-Lys, N-Fmoc-Arg, Ser, Tyr, and 1.3 equiv. […] The resulting solution was maintained at 25 °C and monitored by LC –MS. […]
Each voTz analogue (1.1 equiv.) was added to a 0.25 mL vial containing solvent. […] The chromatogram peak areas of all relevant Cys -containing species were integrated, and the yiel d was determined using the following equation: Yield (%) = Iproduct/(Istarting + Iproduct + Ioxidation + Iside product) × 100, where Istarting, Iproduct, Ioxidation, and Iside product respectively represent the average ion counts of remaining starting material, product, oxidized starting material and any side product, if present 2. […]
DLS analyses and particle zeta potential values were determined using a Nano ZS ZEN 3690 instrument (Malvern […]

Series [2] has as its system B16F10 cells. Description: Cytotoxicity (CCK8, 48 h) of drugs, PDCs, activable-Drugs and TCO, B16F10. It is filed as cell-based, Mouse. The conditions noted are these: Mus musculus, B16-F10; B16F10, 48 h, CCK8, n = 3; activable-Dox: RGD-Dox 2 h, then 200 μM TCO, 48 h in total.
For series [3], the system named is LX2 cells. Description: Cytotoxicity (CCK8, 48 h) of drugs, PDCs, activable-Drugs and TCO, LX2. It is filed as cell-based, Human. The following applies: Homo sapiens, LX-2; LX2 (αvβ3-negative), 48 h, CCK8, n = 3; activable-Dox: RGD-Dox 2 h, then 200 μM TCO.
Series [4] has as its system B16F10 cells. Description: Cell uptake by fluorescence imaging, B16F10. The conditions noted are these: B16F10 and LX2 cells, 10 μM, 2 h. The format is cell-based, Mouse. As to the method:
(§1) B16F10 cells were cultured for 48 h. […]
(§2) 12.1 Calculation of the fluorescence coefficient (F c)
(§3) The Fc was the radio calculated
(§4) 12.2 Uptake calculation of the B16F10 cells […]
(§5) deviation were analyzed using Origin Pro 2015.
(§6) B16F10 cells, characterized by α vβ3
(§7) Following the incubation period, the
Subsequently, the cells were trypsinized and underwent three PBS rinses.
12 .4 Cell uptake analysis by fluorescence imaging

Series [5] relates to B16F10 cells. Description: Comparison of cell uptake between RGD-Dox and Dox using flow cytometry. The format is cell-based, Mouse. As to the method: as §1, §2, §3, §4, §5, §6, §7
Subsequently, the cells were trypsinized and underwent three PBS rinses. […]
A general note: Flow cytometry measures light scatter and fluorescence of single cells or particles in a stream.

The test system of series [6] is U87 cells. Description: Cytotoxicity (CCK8, 48 h) of drugs, PDCs, activable-Drugs and TCO, U87. It is filed as cell-based, Human. The following applies: Homo sapiens, U-87 MG; U87, 48 h, CCK8, n = 3; activable-Dox: RGD-Dox 2 h, then 200 μM TCO, 48 h in total.
Series [7] deals with B16F10 melanoma tumor. The experiment in a line: In vivo anticancer efficacy, subcutaneous B16F10 melanoma tumor model. The arrangement: species or system BALB/c nude mice. As to the method:
Tumor-bearing mice were established by subcutaneously injecting a suspension of 5 × 10^5 B16F10 cells per mouse into the front flank of each nude mouse. When tumor volume reached 50−70 mm^3, the animals were randomly divided into five groups (n = 5). The mice were administered different compounds suspended in PBS via the tail vein every 3 days for a total of four times.
(§8) The mice underwent four treatment courses on day 0, day 3, day 6, and day 9. Tumor size and body weight were measured every day. Tumor volume was calculated via the following formula: V = 1/2 × (minor axis) × (major axis)[2].
(§9) After 12 days, the mice were sacrificed and dissected to obtain tumor tissues and main organs, including heart, liver, spleen, lung, and kidney. Subsequently, all tissues were fixed in a 4% paraformaldehyde solution, routinely paraffin-embedded and sectioned, and then stained with hematoxylin and eosin, as well as using TdT-mediated dUTP nick-end labeling (TUNEL) for subsequent pathological analysis. TUNEL-positive cells appeared fluorescent green, representing the apoptosis of tumor cells (nuclei were fluorescent blue, stained with DAPI).
13. In vivo anticancer efficacy […]
13.2 Calculation of the tumor growth inhibition values (TGI)
Tumor growth inhibition values (TGI) were calculated using the following formula: TGI (%) = (1 − RTVtreatment/
RTVcontrol)*100. RTV refers to relative tumor volume, representing the ratio of the volume at the end of treatment to the
volume at the beginning of treatment. […]

Series [8] deals with SKOV3 cells. The experiment in a line: Cytotoxicity (CCK8, 48 h) of drugs, PDCs, activable-Drugs and TCO, SKOV3. The format is cell-based, Human. The conditions noted are these: Homo sapiens, SK-OV-3; SKOV3, 48 h, CCK8, n = 3; activable-Dox: RGD-Dox 2 h, then 200 μM TCO, 48 h in total.
A short description of series [9]: Body weight and organ histology in the B16F10 tumor model. The format is in vivo, BALB/c nude mice. As to the method: as §8, §9
For series [10], the system named is B16F10, U87, SKOV3 and LX2 cells. The experiment in a line: Cytotoxicity (CCK8, 48 h), figures stated across several cell lines. The format is cell-based. The following applies: read-out: IC50 values against all four cell lines.

In the case of `C=Cc1nnc(-c2ccccc2)nn1` [compound 1, phenyl vinyltetrazine], the “second-order rate constant of the labeling reaction between 1 and Cys” value in [1] came out at 13 ± 0.8 M⁻¹ s⁻¹.
Consider `COc1cccc2c1C(=O)c1c(O)c3c(c(O)c1C2=O)C[C@@](O)(C(=O)CO)C[C@@H]3O[C@H]1C[C@H](N)[C@H](O)[C@H](C)O1` [Dox, doxorubicin], for which the half-maximal inhibitory concentration (IC50) in series [2] was 2.05 µM; in series [3], 3.37 µM; in series [6], 3.26 µM; in series [8], 4.45 µM; in series [10], 2.05 to 4.45 µM. Besides, the “cellular uptake of free drug (imaging)” value in series [4] is “obvious uptake through nonspecific diffusion and internalization”. Also, the Normalized uptake is recorded as 1 in series [5] (normalized to Dox = 1, Data 1); 1 in [5] (normalized to Dox = 1, Data 2); 1 in series [5] (normalized to Dox = 1, Data 3). In series [7] (Data 5), the “tumor growth inhibition values (TGI %)” value is given as 46.63%. The “tumor growth inhibition value (TGI)” value in [7] (after four i.v. courses (days 0, 3, 6, 9), 3.67 μmol·kg^−1, n = 5, TGI = (1 − RTVtreatment/RTVcontrol)*100) is on record as 59.4%. The “tumor growth / inhibition in words” value in series [7] (four i.v. courses, 3.67 μmol·kg^−1 (TCO-P4 36.7 μmol·kg^−1), n = 5) is listed as “slightly slowed the tumor growth”. The “histology of heart, liver, spleen, lung, kidney” value in [9] (after 12 days) is listed as “typical inflammatory injury”. In [9] (four i.v. courses, 3.67 μmol·kg^−1, compared with PBS group), the “body weight in words” value was “serious loss of body weight”.
